Measured values from ChEMBL document CHEMBL1126838 (J Med Chem, 1993).

Target: Tyrosine-protein kinase Lck (Homo sapiens, UniProt P06239)
Test: Tested in vitro for the inhibition of protein-tyrosine kinase p56lck using angiotensin I (1.2 mM) and [gamma-32P]-ATP (50 µM)

Tyrosine-protein kinase Lck, sequence (P06239 whole entry): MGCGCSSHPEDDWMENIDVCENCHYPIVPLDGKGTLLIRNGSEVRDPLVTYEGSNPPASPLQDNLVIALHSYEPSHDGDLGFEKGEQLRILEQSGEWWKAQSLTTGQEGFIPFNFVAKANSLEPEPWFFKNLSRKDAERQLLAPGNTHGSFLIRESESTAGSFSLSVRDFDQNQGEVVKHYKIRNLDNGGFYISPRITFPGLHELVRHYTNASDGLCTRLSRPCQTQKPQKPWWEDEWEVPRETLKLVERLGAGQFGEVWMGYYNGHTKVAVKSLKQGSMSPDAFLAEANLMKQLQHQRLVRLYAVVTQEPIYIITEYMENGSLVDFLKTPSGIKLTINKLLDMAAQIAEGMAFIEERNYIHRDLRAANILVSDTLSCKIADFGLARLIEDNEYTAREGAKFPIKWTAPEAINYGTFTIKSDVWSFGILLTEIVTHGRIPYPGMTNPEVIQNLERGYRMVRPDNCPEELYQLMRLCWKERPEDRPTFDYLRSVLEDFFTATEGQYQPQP

Row | Compound | IC50 [µM]
1 | Oc1cccc(/C=C/c2cccc(O)c2)c1 | 234
2 | C(=C\c1cc(OCc2ccccc2)cc(OCc2ccccc2)c1)/c1ccc(OCc2ccccc2)cc1 | > 2030
3 | C(=C\c1ccc(OCc2ccccc2)c(OCc2ccccc2)c1)/c1ccc(OCc2ccccc2)cc1 | > 2030
4 | C(=C\c1cc(OCc2ccccc2)cc(OCc2ccccc2)c1)/c1cccc(OCc2ccccc2)c1 | > 2030
5 | C(=C\c1cc(OCc2ccccc2)cc(OCc2ccccc2)c1)/c1ccccc1 | > 2030
6 | Oc1cc(O)cc(CCc2cc(O)cc(O)c2)c1 | 487
7 | C(=C\c1ccc(OCc2ccccc2)c(OCc2ccccc2)c1)/c1ccccc1 | > 2030
8 | Oc1cc(O)cc(/C=C/c2cc(O)cc(O)c2)c1 | 16
9 | Oc1cccc(/C=C/c2ccc(O)c(O)c2)c1 | 58
10 | C(=C\c1ccc(OCc2ccccc2)c(OCc2ccccc2)c1)/c1cccc(OCc2ccccc2)c1 | > 2030
11 | Oc1ccc(/C=C/c2ccc(O)c(O)c2)cc1 | 19
12 | Oc1cc(O)cc(CCc2ccc(O)c(O)c2)c1 | 1560
13 | Oc1ccc(/C=C/c2ccc(O)c(O)c2)cc1O | 74
14 | Oc1cccc(/C=C/c2cc(O)cc(O)c2)c1 | 17
15 | Oc1ccc(/C=C/c2ccccc2)cc1O [(E)-3,4-STILBENDIOL] | 203
16 | Oc1cc(O)cc(/C=C/c2ccccc2)c1 [PINOSYLVIN] | 193
17 | Oc1ccc(/C=C/c2cc(O)cc(O)c2)cc1 [RESVERATROL] | 112
